System: not listed separately
Assay: Cytotoxicity against human MCF10A cells assessed as cell viability at 10 uM after 72 hrs by sulforhodamine B assay relative to control
Type: cell-based, MCF-10A
Details: read-out: Activity

SMILES | viability at 72 h, 10 µM [%]
COc1cccc(C(=O)/C=C/c2cc(Br)cc(OC)c2O)c1 | 33.5
COc1cc(Br)cc(/C=C/C(=O)c2ccc(C)cc2)c1O | 155

System: MCF7
Assay: Anticancer activity against human MCF7 cells assessed as cell viability at 30 uM after 72 hrs by sulforhodamine B assay relative to control
Type: functional
Details: MCF7, 72 h, read-out: Activity

SMILES | viability at 30 µM [%]
COc1cc(Br)cc(/C=C/C(=O)c2ccc(Br)cc2)c1O | 48.3
COc1cccc(C(=O)/C=C/c2cc(Cl)ccc2O)c1 | 26.3
COC(=O)C1=C(N)Oc2c(OC)cc(Br)cc2C1CC(=O)c1cccc(OC)c1 (stereo not given) | 94.9
COC(=O)C1=C(N)Oc2ccc(Br)cc2C1CC(=O)c1ccccc1 (stereo not given) | 41.3
N#CC1=C(N)Oc2ccccc2C1CC(=O)c1ccccc1 (stereo not given) | 78.6
O=C(/C=C/c1ccccc1O)c1ccccc1 | 32.1
COC(=O)C1=C(N)Oc2c(OC)cccc2C1CC(=O)c1ccc(Cl)cc1 (stereo not given) | 63.8
Cc1ccc(C(=O)/C=C/c2cc(F)cc(F)c2O)cc1 | 35.3
COc1cc(Br)cc2c1OC(N)=C(C#N)C2CC(=O)c1ccc(Br)cc1 (stereo not given) | 33.1
COC(=O)C1=C(N)Oc2ccc(Cl)cc2C1CC(=O)c1ccccc1 (stereo not given) | 44.2
Cc1ccc(C(=O)/C=C/c2cccc(Br)c2)cc1 | 34
COC(=O)C1=C(N)Oc2ccc(Br)cc2C1CC(=O)c1ccc(Cl)cc1 (stereo not given) | 32.4
COc1cccc(C(=O)/C=C/c2cc(Br)cc(OC)c2O)c1 | 63.1
COC(=O)C1=C(N)Oc2c(OC)cc(Br)cc2C1CC(=O)c1ccc(Br)cc1 (stereo not given) | 31.9
COc1cc(Br)cc2c1OC(N)=C(C#N)C2CC(=O)c1ccc(C)cc1 (stereo not given) | 52.8
COc1cc(Br)cc(/C=C/C(=O)c2ccc(C)cc2)c1O | 61.5

System: Hs-578T
Assay: Anticancer activity against human Hs 578T cells assessed as cell viability at 30 uM after 72 hrs by sulforhodamine B assay relative to control
Type: functional
Details: read-out: Activity

SMILES | viability at 30 µM [%]
COc1cccc(C(=O)/C=C/c2cc(Br)cc(OC)c2O)c1 | 69.8
COc1cc(Br)cc(/C=C/C(=O)c2ccc(C)cc2)c1O | 64.2

System: Hs-578T
Assay: Anticancer activity against human Hs 578T cells assessed as cell viability at 10 uM after 72 hrs by sulforhodamine B assay relative to control
Type: functional
Details: read-out: Activity

SMILES | viability at 10 µM [%]
COc1cccc(C(=O)/C=C/c2cc(Br)cc(OC)c2O)c1 | 74.2
COc1cc(Br)cc(/C=C/C(=O)c2ccc(C)cc2)c1O | 84.6

System: MCF7
Assay: Anticancer activity against human MCF7 cells assessed as cell viability at 10 uM after 72 hrs by sulforhodamine B assay relative to control
Type: functional
Details: MCF7, 72 h, read-out: Activity

SMILES | viability at 10 µM [%]
COc1cc(Br)cc(/C=C/C(=O)c2ccc(Br)cc2)c1O | 64.6
COc1cccc(C(=O)/C=C/c2cc(Cl)ccc2O)c1 | 38.2
COC(=O)C1=C(N)Oc2c(OC)cc(Br)cc2C1CC(=O)c1cccc(OC)c1 (stereo not given) | 142
COC(=O)C1=C(N)Oc2ccc(Br)cc2C1CC(=O)c1ccccc1 (stereo not given) | 107
N#CC1=C(N)Oc2ccccc2C1CC(=O)c1ccccc1 (stereo not given) | 82.7
O=C(/C=C/c1ccccc1O)c1ccccc1 | 71.9
COC(=O)C1=C(N)Oc2c(OC)cccc2C1CC(=O)c1ccc(Cl)cc1 (stereo not given) | 89.8
Cc1ccc(C(=O)/C=C/c2cc(F)cc(F)c2O)cc1 | 33.9
COc1cc(Br)cc2c1OC(N)=C(C#N)C2CC(=O)c1ccc(Br)cc1 (stereo not given) | 39.7
COC(=O)C1=C(N)Oc2ccc(Cl)cc2C1CC(=O)c1ccccc1 (stereo not given) | 87.2
Cc1ccc(C(=O)/C=C/c2cccc(Br)c2)cc1 | 60.4
COC(=O)C1=C(N)Oc2ccc(Br)cc2C1CC(=O)c1ccc(Cl)cc1 (stereo not given) | 67.6
COc1cccc(C(=O)/C=C/c2cc(Br)cc(OC)c2O)c1 | 77.3
COC(=O)C1=C(N)Oc2c(OC)cc(Br)cc2C1CC(=O)c1ccc(Br)cc1 (stereo not given) | 50.2
COc1cc(Br)cc2c1OC(N)=C(C#N)C2CC(=O)c1ccc(C)cc1 (stereo not given) | 116
COc1cc(Br)cc(/C=C/C(=O)c2ccc(C)cc2)c1O | 96.8

System: not listed separately
Assay: Cytotoxicity against human MCF10A cells assessed as cell viability at 30 uM after 72 hrs by sulforhodamine B assay relative to control
Type: cell-based, MCF-10A
Details: read-out: Activity

SMILES | viability at 72 h, 30 µM [%]
COc1cccc(C(=O)/C=C/c2cc(Br)cc(OC)c2O)c1 | 47
COc1cc(Br)cc(/C=C/C(=O)c2ccc(C)cc2)c1O | 148
